Test results reported in article PMC7180452, “Purine and Purine Isostere Derivatives of Ferrocene: An Evaluation of ADME, Antitumor and Electrochemical Properties” (Molecules, 2020).
Entries after “also recorded” stand apart in the source; their conditions may differ. Like-named read-outs stand apart in the source and are kept apart here.

What was measured:
[1] = system: normal skin fibroblasts (HFF); test: Cytotoxicity on non-tumor cells, HFF; format: cell-based, human
Description: (§1) Antiproliferative activity of compounds 11a−11c, 12a−12c, 13a−13c, 14a−14c, 15a−15c, 16a, 23a−23c, 24a−24c, 25a−25c, 34a−34c and 35a−35c was evaluated in vitro on four human tumor cell lines (American Type Culture Collection, Manassas, VA, USA): metastatic colorectal adenocarcinoma (SW620), ductal pancreatic adenocarcinoma (CFPAC-1), hepatocellular carcinoma (HepG2) and cervical carcinoma (HeLa) as well as normal skin fibroblasts (HFF).

[2] = system: cervical carcinoma (HeLa); test: In vitro antiproliferative activity, HeLa; format: cell-based, human; conditions: HeLa cells
Description: as §1

[3] = pH 7.4
Description: (§5) The distribution coefficient Chrom logD, a parameter used to assess the lipophilicity of compounds [36, 37], was determined for novel purine and purine isosteres with a ferrocene motif as shown in Table 1.
(§6) The distribution coefficient, Chrom logD, was determined from compounds’ gradient retention times by employing a high-performance liquid chromatography method with fast acetonitrile gradient. Compounds were prepared for analysis in final concentration of 1.25 mM by dilution of 10 mM stock solutions in DMSO with acetonitrile. Aqueous mobile phase was 50 mM ammonium acetate adjusted with ammonia solution to pH 7.4 and the organic mobile phase was acetonitrile. A reversed phase HPLC column Luna C18, 50 × 3 mm i.d., 5 µm particle size (Phenomenex, Torrance, CA, USA) was used for analysis. Sample injection volume was 2 µL and the flow rate was 1 mL min^−1. All compounds were analysed in duplicates. Fast-gradient elution was as follows: from 0 to 100% of acetonitrile (0−3 min), 100% of acetonitrile (3.0−3.5 min), from 100 to 0% of acetonitrile (3.5−3.7 min), and re-equilibration with 100% of aqueous mobile phase (3.7−5.0 min). All measurements were performed on an HPLC-DAD instrument Agilent 1100 Series (Agilent Technologies, Santa Clara, CA, USA) coupled with a mass spectrometer Micromass Quattro API (Waters, MA, USA). MassLynx software, version 4.1 (Waters, Manchester, UK) was used for data acquisition and processing. Before compound analysis, a calibration step was performed. A set of standard compounds with literature CHI values [36] were plotted against gradient retention times to obtain a calibration equation, which was used to determine CHI value from the compounds’ retention times.

[4] = system: hepatocellular carcinoma (HepG2); test: In vitro antiproliferative activity, HepG2; format: cell-based, human; conditions: HepG2 cells
Description: as §1

[5] = system: metastatic colorectal adenocarcinoma (SW620); test: In vitro antiproliferative activity, SW620; format: cell-based, human; conditions: SW620 cells
Description: as §1

[6] = system: ductal pancreatic adenocarcinoma (CFPAC-1); test: In vitro antiproliferative activity, CFPAC-1; format: cell-based, human; conditions: CFPAC-1 cells
Description: as §1

[7] = Metabolic stability in human liver microsomes; format: in vitro ADME; conditions: for t1/2: 1 µM; for In Vivo CLh / In Vivo CLh (% LBF): human; for In Vivo CLh: predicted in vivo hepatic clearance; for In Vivo CLh (% LBF): predicted, % of liver blood flow
Description: (§2) Metabolic stability of compounds was assessed in human and mouse liver microsomes (Corning, Tewksbury, MA, USA). Compounds, in final concentration of 1 µM, were incubated in phosphate buffer (50 mM, pH 7.4) for 60 min at 37 °C together with liver microsomes and NADPH generating system (nicotinamide adenine dinucleotide phosphate (NADP, 0.5 mM), glucose-6-phosphate (G6P, 5 mM), glucose-6-phosphate dehydrogenase (1.5 U mL^−1) and magnesium chloride (0.5 mM)). Also, compounds were incubated without the presence of NADPH cofactor, as a buffer stability control. Metabolic activity of liver microsomes was verified by including testosterone and propranolol as positive controls, as well as caffeine as a negative control. Sampling was performed at six time points (0, 10, 20, 30, 45 and 60 min), followed by reaction termination by addition of acetonitrile/methanol mixture (2:1, v/v) containing dicofenac as internal standard. Samples were analyzed as previously described for samples from permeability assay. The in vitro half-life (t1/2) was calculated from the slope of the linear regression by plotting ln % remaining of parent compound against incubation time. In vitro intrinsic clearance, CLint was calculated from half-life using following Equation (3):(3) CLint [µL min^−1 mg^−1]=ln2/t1/2×mL per incubation/mg protein per incubation where 52.5 mg protein/g liver is used as a constant.
(§3) Predicted in vivo hepatic clearance, in vivo CLh was calculated as follows:(4) in vivo CLh [mL min^−1 kg^−1]=CLint×(mg protein/g liver)×Q×(LW/BW) /Q+(CLint×(mg protein/g liver)×(LW/BW)) where: LW/BW = liver weight/body weight [g kg^−1]; 25.7 (human), 87.5 (mouse); Q = LBF = liver blood flow [mL min^−1 kg^−1]; 21/1.26 (human), 131/7.86 (mouse).
(§4) Predicted in vivo hepatic clearance can be expressed as %LBF and calculated as follows:(5) in vivo CLh [%LBF]=in vivo CLh/LBF×100

[8] = Chrom logD determination (fast-gradient HPLC); conditions: pH 7.4
Description: as §5, §6

[9] = Turbidimetric kinetic solubility assay; conditions: for Kinetic Solubility: PBS, 1% DMSO, 37 °C, 2 h, estimated range
Description: The turbidimetric solubility assay, which allows a rapid determination of the kinetic solubility of newly synthesized compounds using small amounts of their DMSO solutions, was used to assess the kinetic solubility [38].
The compounds’ DMSO stock solutions in concentration of 10 mM were serially diluted by factor 3.3×, 3×, 3.3× and 3× in DMSO. Prepared solutions were spiked into phosphate-buffered saline (PBS, 100 mM) to obtain final compounds’ concentrations of 100, 30, 10, 3 and 1 µM (3 µL of prepared dilutions were spiked to 297 µL of PBS, with final DMSO content of 1%, v/v). All compounds were tested in two replicas per concentration. Prepared solutions were incubated at 37 °C for 2 h with gentle shaking. Blank solutions were also prepared by spiking DMSO in PBS buffer (1% of DMSO, v/v). […] Compound/control samples are compared to the blank solution. […] Results were expressed as an estimated solubility range (lower and upper bound).

[10] = system: MDCKII-hMDR1 cells; test: Permeability and P-gp substrate assessment in MDCKII-hMDR1 cell monolayer; format: in vitro ADME, canine; conditions: for Permeability classification: MDCKII-hMDR1, in words; for Efflux Ratio (BA/AB) / Papp (AB) / Papp (BA): without P-gp inhibitor; for Papp (AB) / Papp (BA): 10 µM, 60 min
Description: The Madin-Darby canine kidney cells with overexpressed human multidrug-resistant gene (MDCKII-hMDR1) have been frequently used to study bidirectional transport of compounds and assess P-gp substrate potential. Apparent permeability (Papp) values were determined from the amount permeated through the MDCKII-hMDR1 cell monolayer in both the apical-basolateral (AB) and basolateral-apical (BA) direction.
MDCKII-hMDR1 cell monolayer was used for determination of permeability and P-gp substrate assessment. MDCKII-hMDR1 cells (Solvo Biotechnology, Szeged, Hungary) were grown in the controlled atmosphere (37 °C, 95% humidity, 5% CO2) in MDCK cell culture medium containing Dulbecco’s Modified Eagle Medium (DMEM) + 10% Fetal bovine serum (FBS, inactivated) + 1% glutamax-100 + 1% antibiotic/antimycotic + 1% of Non-essential amino acids Minimum Essential Medium (MEM NEAA). Cultures were split every 3–4 days using 0.05% Trypsin-EDTA. Cells were seeded 4 days prior to the experiment in concentration of 0.3 × 10^6 cells mL^−1 and cultured in CO2 incubator. On the experiment day, cell monolayers were washed with Dulbecco’s phosphate buffer saline (D-PBS) and equilibrated for 45 min in CO2 incubator in D-PBS containing 1% DMSO (1% v/v) with or without Elacridar (2 µM). Compounds, in final concentration of 10 µM, were prepared in transport medium containing Lucifer yellow (100 µM), with DMSO contentment of 1% (v/v) and in the presence and without Elacridar. Lucifer yellow calibration curve was prepared by serial dilution (12 points, with 100 µM as the highest point). Monolayer integrity was examined by fluorescent measurement on a Microplate reader Infinite F500 (Tecan) by using an excitation of 485 nm and emission of 530 nm. Experiment was started by applying the solutions containing test compounds to apical and basolateral side of the cell monolayer. Starting compound concentration (C0) was sampled at the start of the experiment and apical and basolateral compartments were sampled after incubation at 37 °C with gentle shaking for 60 min. Compound were tested in duplicate. Amprenavir was used as a control with low permeability and as a P-gp substrate without inhibitor presence, turning into a highly permeable compound with the inhibitor present.
Samples were analyzed on an ABSciex API 4000 Triple Quadrupole Mass Spectrometer (Sciex, Division of MDS Inc., Toronto, ON, Canada) coupled to a UHPLC Nexera X2 (Shimadzu, Kyoto, Japan). Samples (1 µL) were injected onto a reversed phase HPLC column Luna Omega Polar C18, 30 × 2.1 mm i.d., 1.6 µm particle size (Phenomenex) which was kept at 50 °C. Aqueous solution was 0.1% formic acid in deionized water and the organic mobile phase was […]. Flow rate was kept at 0.7 mL min^−1 for all measurements. Fast-gradient elution was as follows: 2% of organic mobile phase through 0.15 min, from 2 to 95% of organic mobile phase (0.15−0.7 min), 95% of organic mobile phase (0.7−1.1 min), from 95 to 2% of organic mobile phase (1.1−1.11 min), and re-equilibration with 98% of aqueous mobile phase (1.11−1.5 min). Positive ion mode with turbo spray, an ion source temperature of 550 °C and a dwell time of 75 ms were utilized for mass spectrometric detection. Quantitation was performed using multiple reaction monitoring (MRM) at the specific transition corresponding to the compound of interest. Warfarin was used as an internal standard. The ratios between compound and internal standard peak areas were used instead of real compound concentration. Apparent permeability coefficient, Papp (nm s^−1) values were calculated by using the following Equation (1):Papp [nm s^−1] = (dQ/dT) × (1/C0) × (1/A)(1) where: dQ/dT = permeability rate; C0 = initial concentration in donor compartment; A = surface area of the cell monolayer (0.7 cm^2). […]

[11] = Metabolic stability in mouse liver microsomes; format: in vitro ADME; conditions: for t1/2: mouse liver microsomes, 1 µM; for In Vivo CLh / In Vivo CLh (% LBF): mouse; for In Vivo CLh: predicted in vivo hepatic clearance; for In Vivo CLh (% LBF): predicted, % of liver blood flow
Description: as §2, §3, §4

Compound	IC50 [1] [µM]	IC50 [2] [µM]	Chrom logD [3]	IC50 [4] [µM]	IC50 [5] [µM]	IC50 [6] [µM]	t1/2 ([7]; human liver microsomes) [min]	Metabolic stability classification ([7]; human liver microsomes, in words)	In Vivo CLh [7] [mL/min/kg]	In Vivo CLh (% LBF) [7] [% LBF]	Chrom logD [8]	Kinetic Solubility [9] [µM]	Solubility classification ([9]; kinetic solubility, in words)	Permeability classification [10]	Efflux Ratio (BA/AB) [10]	Papp (AB) [10] [×10⁻⁶ cm/s]	Papp (BA) [10] [×10⁻⁶ cm/s]	t1/2 [11] [min]	In Vivo CLh [11] [mL/min/kg]	In Vivo CLh (% LBF) [11] [% LBF]
CC([c-]1cccc1)n1cc(Cn2cnc3ccccc32)nn1.[Fe+2].c1cc[cH-]c1 (centres unmarked) [Compound 23b, 1-[1-(1-Ferrocenyl-1-methylmethyl-1,2,3-triazol-4-yl)methyl]-1H-benzimidazole]	31.8 ± 9.81	89.6 ± 13.7	4.84	83.6 ± 8.61	> 100	68 ± 13.7	–	–	–	–	–	–	–	–	–	–	–	–	–	–
Ic1ccc2c(ccn2Cc2cn(C[c-]3cccc3)nn2)c1.[Fe+2].c1cc[cH-]c1 [Compound 25a, 5-Iodo-1-[1-(1-ferrocenylmethyl-1,2,3-triazol-4-yl)methyl]-1H-indole]	> 100	78.5 ± 9.36	>6.57	> 100	> 100	> 100	–	–	–	–	–	–	–	–	–	–	–	–	–	–
[Fe+2].c1cc[cH-]c1.c1ccc2c(c1)ncn2Cc1cn(-[c-]2cccc2)nn1 [Compound 23c, 1-[1-(1-Ferrocenyl-1,2,3-triazol-4-yl)methyl]-1H-benzimidazole]	> 100	> 100	4.45	> 100	> 100	> 100	–	–	–	–	–	–	–	–	–	–	–	–	–	–
[Fe+2].c1cc[cH-]c1.c1ccc2c(c1)ccn2Cc1cn(-[c-]2cccc2)nn1 [Compound 24c, 1-[1-(1-Ferrocenyl-1,2,3-triazol-4-yl)methyl]-1H-indole]	> 100	88.1 ± 1.18	>6.57	90.9 ± 11.5	> 100	84.5 ± 15.8	–	–	–	–	–	–	–	–	–	–	–	–	–	–
Clc1ncnc2ncn(Cc3cn(C[c-]4cccc4)nn3)c12.[Fe+2].c1cc[cH-]c1 [Compound 15a, 6-Chloro-7-[1-(1-ferrocenymethyl-1,2,3-triazol-4-yl)methyl]-7H-purine]	13.8 ± 4.17	28.6 ± 8.28	–	36 ± 1.81	27.2 ± 5.3	34.4 ± 0.43	51.9	moderate stability	15.0	58	3.82	>100	high solubility	moderate AB permeability; also recorded: good permeability	7.0	4.8	33.5	8.8	24.8	97
Clc1ncnc2c1ccn2Cc1cn(C[c-]2cccc2)nn1.[Fe+2].c1cc[cH-]c1 [Compound 11a, 4-Chloro-7-[1-(1-ferrocenymethyl-1,2,3-triazol-4-yl)methyl]-7H-pyrrolo[2,3-d]pyrimidine]	8.57 ± 1.95	38.2 ± 2.3	–	42 ± 5.93	31.6 ± 0.84	32.9 ± 2.46	7.8	–	–	90	5.62	<1	–	moderate to high AB permeability	2.2	8.4	18	4.4	–	98
CC([c-]1cccc1)n1cc(Cn2ccc3c(Cl)ncnc32)nn1.[Fe+2].c1cc[cH-]c1 (centres unmarked) [Compound 11b, 4-Chloro-7-[1-(1-ferrocenyl-1-methylmethyl-1,2,3-triazol-4-yl)methyl]-7H-pyrrolo[2,3-d] pyrimidine]	8.88 ± 3.46	31.4 ± 1.04	–	34.5 ± 1.36	32 ± 0.34	31.3 ± 4.51	2.3	–	24.9	97	5.94	3 to 10	–	high permeability	1.5	11.8	17.4	–	25.7	100
